This is an account of results in patent publication US11136551B2, “In vitro method of differentiating a human pluripotent stem cell population into a cardiomyocyte cell population” (Ncardia B.V., priority 2015, dated 2021).

The test system of data set [1] is human pluripotent stem cells. In words: In vitro differentiation of human pluripotent stem cells into cardiomyocytes: yield and progress of differentiation. Type of data set: cell-based. The note with it: in combination with XAV-939, relative to IWP-L6. The protocol:
IGF may be added during any stage of the method of differentiating the human pluripotent stem cell population. IGF may, for example, be provided to the human pluripotent stem cell population immediately after plating or passaging the cells (i.e. after transferring of a small number of cells into a new vessel for cultivating) and before, for example, step a) is performed (the contacting of the cells with at least the Wnt-signaling agonist), or before step b) is performed (the contacting of the cells with XAV-939 and IWP-L6 and/or C-59). […]
For differentiation, cells were seeded in 12-well plates at density of 60,000 cells per well or a split ratio that was empirically determined to give 30-80% confluence after 4 days. […]
Cell numbers were determined with a Fuchs-Rosenthal counting chamber. […] Cells were counted and number of cells was determined using following equations: cells/ml=average count per square×dilution factor×5000 total cells=cells/ml×total original volume of cell suspension from which sample was taken. […] GFP fluorescence reports the expression of the endogenous NKX2.5 gene and enables identification/quantification of hPSC-derived cardiomyocytes during differentiation. Method of Measuring TNNT2 (Using FACS) The percentage TNNT2 expressing cells was measured by flow cytometric analysis. […]

Data set [2] has as its system NKX2-5-GFP reporter stem cells. The data set is described as follows: Percentage of cardiomyocytes by flow cytometry of GFP positive cells at day 14. Type of data set: cell-based, human. The conditions noted are these: FIG. 3, reduction of IWP-L6 from 2 microMolar to 0.25 microMolar. The protocol:
For differentiation, cells were seeded in 12-well plates at density of 60,000 cells per well or a split ratio that was empirically determined to give 30-80% confluence after 4 days. Culture media was […] days with a differentiation media as disclosed herein, for example containing 46.5% IMDM (Gibco 21056), 0.25% Bovostar BSA, 46.5% Ham's F12 with Glutamax, 2 mM Glutamax, 450 nM […], 0.05 mg/ml ascorbic acid, 0.5% 5000 U/ml Pen/Strep (Gibco 12070), 0.01% 1000* Trace elements mix B (Cellgro 99-176-CL), 0.1% 1000* Trace elements mix C (Cellgro 99-176-CL). In several experiments 0.1% ITS-x was used from day 4-14, i.e. during differentiation of the cells. Cell numbers were determined with a Fuchs-Rosenthal counting chamber. […] Cells were counted and number of cells was determined using following equations: cells/ml=average count per square×dilution factor×5000 total cells=cells/ml×total original volume of cell suspension from which sample was taken. […] GFP fluorescence reports the expression of the endogenous NKX2.5 gene and enables identification/quantification of hPSC-derived cardiomyocytes during differentiation. Method of Measuring TNNT2 (Using FACS) The percentage TNNT2 expressing cells was measured by flow cytometric analysis. […] Percentage of cardiomyocytes was determined at day 14 of differentiation using flow cytometry for detection/quantification of GFP positive cells. […]
(In flow cytometry, cells or beads pass a laser one at a time.)

A further data set concerns dishevelled 2 (Dvl2). The conditions noted are these: HEK293 cells; cited from earlier work.
A further data set deals with hIPSC lines. The data set is described as follows: Percentage of cardiomyocytes by flow cytometry for Troponin-T (TNNT-2) at day 14. It counts as cell-based, human. The conditions noted are these: for differentiation efficiency (TNNT-2 positive cells): FIG. 5, day 14. On the procedure:
For differentiation, cells were seeded in 12-well plates at density of 60,000 cells per well or a split ratio that was empirically determined to give 30-80% confluence after 4 days. Culture media was […] days with a differentiation media as disclosed herein, for example containing 46.5% IMDM (Gibco 21056), 0.25% Bovostar BSA, 46.5% Ham's F12 with Glutamax, 2 mM Glutamax, 450 nM […], 0.05 mg/ml ascorbic acid, 0.5% 5000 U/ml Pen/Strep (Gibco 12070), 0.01% 1000* Trace elements mix B (Cellgro 99-176-CL), 0.1% 1000* Trace elements mix C (Cellgro 99-176-CL). In several experiments 0.1% ITS-x was used from day 4-14, i.e. during differentiation of the cells. Cell numbers were determined with a Fuchs-Rosenthal counting chamber. Briefly, cells grown in monolayer cultures were detach from surface of plate using TrypLETM Select Enzyme (Life Technologies). A uniform cell suspension was transferred to the edge of hemocytometer counting chamber. Cells were counted and number of cells was determined using following equations: cells/ml=average count per square×dilution factor×5000 total cells=cells/ml×total original volume of cell suspension from which sample was taken. Method of Measuring NKX2.5 NKX-GFP reporter hESC and iPSC cells have been described previously. These cells express the fluorescent protein GFP under the control of the endogenous NKX2-5 promoter. GFP+ve cells mark cardiomyocytes (Elliott D A et al. Nat. Methods, 8 (2011), pp. 1037-1040; van den Berg C W et al., Development. 2015 Jul. 24. pii: dev.123810. [Epub ahead of print]). NKX 2.5 is transcription factor essential for heart development and it is expressed in the heart throughout life. GFP fluorescence reports the expression of the endogenous NKX2.5 gene and enables identification/quantification of hPSC-derived cardiomyocytes during differentiation. Method of Measuring TNNT2 (Using FACS) The percentage TNNT2 expressing cells was measured by flow cytometric analysis. Briefly, cells were dissociated with TrypLETM Select Enzyme (Life Technologies), washed with PBS, fixed and permeabilized with FIX & PERM® Cell Fixation and Permeabilization Kit (Life Technologies). Samples were incubated with Troponin T (TNNT2), Cardiac Isoform Ab-1, Mouse Monoclonal Antibody (ThermoFisher, MS-295-P1; at 1:1000 dilution) followed by incubation with secondary antibody Donkey Anti-mouse APC (Jackson Immuno, 715-136-151; at 1:500 dilution) both diluted in Fix&Perm Medium B. Samples were analyzed on a NovocyteTM Flow Cytometer (ACEA Bioscicences) or a MACSQuant VYB instrument (Miltenyi Biotech). […] Two […] cultured on feeders in KOSR (InvitroGen)/FGF supplemented DMEM-F12. To start differentiation, cells were dissociated using Accutase and resuspended in mTesR at a concentration of 60,000/ml cells, the cell suspension was seeded onto Matrigel coated 12-well plates. Cells were maintained for 4 days before onset of differentiation. Cells were treated for 2 days with 5 microMolar CHIR99021, followed by 2 days culture in the presence of specific Wnt inhibiting small molecules, next the cells were cultured for 10 days in differentiation medium. Percentage of cardiomyocytes (FIG. 4A; % TNNT2 positive cells at day 14) was determined at day 14 of differentiation using flow cytometry for the pan-cardiac marker Troponin-T (TNNT-2). […] Presence and absence or concentration have no significant effect on the total number of cells (FIG. 4B; cell count at day 14, in million cells/well). […]

For the compound `Cc1cc(-c2ccc(CC(=O)Nc3ccc(-c4cccnc4)cc3)cc2)ccn1` [C59, 2-[4-(2-methylpyridin-4-yl)phenyl]-N-(4-pyridin-3-ylphenyl)acetamide], the “toxicity to the human pluripotent stem cells” value in data set [1] is recorded as “more toxic”. Besides, the “yield of cell obtained with the method” value in data set [1] (data not shown) is given as “reduced yield”.
As for `O=C(CSc1nc2c(c(=O)n1-c1ccccc1)SCC2)Nc1ccc(-c2ccccc2)cn1` [IWP-L6, 2-[(4-oxo-3-phenyl-6,7-dihydrothieno[3,2-d]pyrimidin-2-yl)sulfanyl]-N-(5-phenylpyridin-2-yl)acetamide], the “differentiation efficiency (GFP positive cells)” value in data set [2] is on record as “increases the differentiation efficiency even further”. For the same compound, in the data set with dishevelled 2 (Dvl2), the “phosphorylation of dishevelled 2 (Dvl2)” value was “suppress phosphorylation of dishevelled 2 (Dvl2)”. The “differentiation (% TNNT2 positive cells at day 14)” value with hIPSC lines (FIG. 4A, addition of IWP-L6 at 0.25 microMolar to XAV939) is given as “further improves the differentiation”. For the same compound, in the data set with hIPSC lines (alone), the “differentiation efficiency (TNNT-2 positive cells)” value is “about 70%”.
Turning to `O=c1[nH]c(-c2ccc(C(F)(F)F)cc2)nc2c1CSCC2` [XAV-939, 3,5,7,8-Tetrahydro-2-[4-(trifluoromethyl)phenyl]-4H-thiopyrano[4,3-d]pyrimidin-4-one], the “differentiation efficiency (% TNNT2 positive cells at day 14)” value with hIPSC lines (FIG. 4A, further increase of concentration above 5 microMolar) was “reduces differentiation efficiency”. For the same compound, the “optimal concentration (% TNNT2 positive cells at day 14)” value with hIPSC lines (FIG. 4A, titration of XAV-939, two hIPSC lines) was found to be 5 microMolar. For the same compound, the “differentiation efficiency (TNNT-2 positive cells)” value in the data set with hIPSC lines (addition of XAV939 to IWP-L6) was “further increased”.
